Source: US20020025918A1, “Methods of using helical peptides in plants” (priority 1987, published 2002)
Values after ≈ are worked out from the molar mass of the structure shown. Like-named read-outs stand apart in the source and are kept apart here. Residues, ends and D or L forms follow the SMILES beside them.

Legend:
Staph aureus = test: MIC/MBC, fresh isolates; format: cell-based; details: fresh isolate Staph aureus
From the text: (§1) The procedure of example 2 was followed using a variety of freshly isolated bacterial samples.

Enterobacteria Cloacae = test: MIC/MBC, fresh isolates; format: cell-based; details: fresh isolate Enterobacteria Cloacae
From the text: as §1

Eschera Coli = test: MIC/MBC, fresh isolates; format: cell-based; details: fresh isolate Eschera Coli
From the text: as §1

Serratia Marcescens = test: MIC/MBC, fresh isolates; format: cell-based; details: fresh isolate Serratia Marcescens
From the text: as §1

Pseudomonas aeruginosa-3 = test: MIC/MBC, fresh isolates; format: cell-based; details: fresh isolate Pseudomonas aeruginosa-3
From the text: as §1

Citrobacter Diversus = test: MIC/MBC, fresh isolates; format: cell-based; details: fresh isolate Citrobacter Diversus
From the text: as §1

Staph auerus-MR-1 = test: MIC/MBC, fresh isolates; format: cell-based; details: fresh isolate Staph auerus-MR-1
From the text: as §1

Klebsiella pheumoniae-2 = test: MIC/MBC, fresh isolates; format: cell-based; details: fresh isolate Klebsiella pheumoniae-2
From the text: as §1

Acinetobacter Cal Anit = test: MIC/MBC, fresh isolates; format: cell-based; details: fresh isolate Acinetobacter Cal Anit
From the text: as §1

Enterococcus-3 = test: MIC/MBC, fresh isolates; format: cell-based; details: fresh isolate Enterococcus-3
From the text: as §1

Pseudomonas aeruginosa-2 = test: MIC/MBC, fresh isolates; format: cell-based; details: fresh isolate Pseudomonas aeruginosa-2
From the text: as §1

Pseudomonas aeruginosa-1 = test: MIC/MBC, fresh isolates; format: cell-based; details: fresh isolate Pseudomonas aeruginosa-1
From the text: as §1

Staph Coag neg = test: MIC/MBC, fresh isolates; format: cell-based; details: fresh isolate Staph Coag neg
From the text: as §1

Enterococcus-2 = test: MIC/MBC, fresh isolates; format: cell-based; details: fresh isolate Enterococcus-2
From the text: as §1

Staph aureus-MR-2 = test: MIC/MBC, fresh isolates; format: cell-based; details: fresh isolate Staph aureus-MR-2
From the text: as §1

Morganella morganil = test: MIC/MBC, fresh isolates; format: cell-based; details: fresh isolate Morganella morganil
From the text: as §1

Citrobacter Freundii = test: MIC/MBC, fresh isolates; format: cell-based; details: fresh isolate Citrobacter Freundii
From the text: as §1

Enterococcus-1 = test: MIC/MBC, fresh isolates; format: cell-based; details: fresh isolate Enterococcus-1
From the text: as §1

Klebsiella pheumoniae = test: MIC/MBC, fresh isolates; format: cell-based; details: fresh isolate Klebsiella pheumoniae
From the text: as §1

[1] = test system: Human mononuclear leukocytes; test: 3H-thymidine uptake in WBC (proliferation); format: cell-based
Procedure: Human mononuclear leukocytes were isolated from whole blood in the following manner. Blood was collected in vacutainer tubes containing EDTA, and was then diluted with an equal valume of calcium and magnesium-free PBS and layered over Histopaque resin (GIBCO). The tubes were centrifuged for 30 minutes at 25° C. and 450× g. The plasma and platelets above the banded layer of cells in the resulting gradient were removed and discarded. The banded white blood cells were removed to fresh test tubes, washed 3 times with PBS, and resuspended in RPMI medium containing 10% fetal bovine serum (FBS), mercaptoethanol, and penicillin and streptomycin as antibiotics. The cells were then counted and resuspended to a final concentration of 3×10^6 cells/ml.
To each well of a 96 well flat-bottomed microtiter plate was aded 100 μl of cells (3×10^5 cells). Treatment groups were set in quadruplicate samples. The appropriate concentration of test peptide and/or the mitogen hytohemaglutinate (PHA), was added in a total volume of 100 μl of medium to the test wells. The plates were then incubated at 37° C. and 5% CO2 for a duration of 72 hours. At the end of the incubation period, 1 μCi of 3H-thymidine in 1 μl TRIS-HCI, PH8 was added to each well, and the plates incubated an additional 18 hours.
Cellular DNA was harvested onto glass fiber filters using a semi-automatic cell harvester. The glass filters were then placed into vials containing scintillation fluid, and the samples were counted in a scintillation counter. The uptake of 3H-thymidine is an indiator of cell proliferation, thus the higher the number of counts in the sample, the greater the proliferative activity of the cells. The results in Table XI indicate that low dose of the synthetic peptides of this invention stimulate cell growth.

[2] = 3T3 fibroblast viability, trypan blue exclusion; format: cell-based; details: human, 100 μM peptide, one hour, read-out: % Cell Viability
Procedure: (§2) B-16 myeloma cells and normal 3T3 […] fibroblasts were either permitted to attach to the test plate, or treated with trypsin to free the cells from the plastic dish prior to treatment. Cells were then treated with 100 μM lytic peptide for one hour as described above, and cell viability was then determined by trypan blue exclusion.

[3] = Survival of non-infected catfish fingerlings injected with peptide; format: in vivo; details: 200 μg i.p. once per day for 4 days
Procedure: […] Treatment groups of the fish were then injected intraperitoneally (i.p.) with the lytic peptide LSB-37 dissolved in saline, or a saline control once per day for a period of 4 days.

B-16 myeloma cells = test: B-16 cell viability, trypan blue exclusion; format: cell-based; details: 100 μM peptide, one hour
Procedure: as §2

S. aureus = test: MBC and MIC susceptibility test; format: cell-based
E. coli = test: MBC and MIC susceptibility test; format: cell-based
[4] = Role of cytoskeletal structure in susceptibility to lysis, FDD cell viability; details: donkey, primary fetal donkey dermal cells (FDD), % Viability of Treated DD Cells, 100 μM peptide 15 minutes
P. aeruginosa = test: MBC and MIC susceptibility test; format: cell-based

CC(C)C[C@H](NC(=O)[C@H](CCCCN)NC(=O)[C@H](CCCCN)NC(=O)[C@H](C)NC(=O)[C@H](CC(C)C)NC(=O)[C@H](CCCCN)NC(=O)[C@H](C)NC(=O)[C@H](CC(C)C)NC(=O)[C@H](CCCCN)NC(=O)[C@H](CCCCN)NC(=O)[C@H](C)NC(=O)[C@H](CC(C)C)NC(=O)[C@H](CCCCN)NC(=O)[C@H](CCCCN)NC(=O)[C@H](CC(C)C)NC(=O)[C@H](CCCCN)NC(=O)[C@H](CCCCN)NC(=O)[C@H](C)NC(=O)[C@H](CC(C)C)NC(=O)[C@H](CCCCN)NC(=O)[C@H](CCCCN)NC(=O)[C@H](C)NC(=O)[C@@H](N)Cc1ccccc1)C(N)=O [Anubis-2] (H-FAKKLAKKLKKLAKKLAKLAKKL-NH2)
MBC (Staph aureus): 51.2 µM (≈ 134 µg/mL)
MIC (Staph aureus): 6.4 µM (≈ 16.7 µg/mL)
MBC (Enterobacteria Cloacae): 12.8 µM (≈ 33.4 µg/mL)
MIC (Enterobacteria Cloacae): 6.4 µM (≈ 16.7 µg/mL)
MBC (Eschera Coli): 12.8 µM (≈ 33.4 µg/mL)
MIC (Eschera Coli): 6.4 µM (≈ 16.7 µg/mL)
MIC (Serratia Marcescens): 51.2 µM (≈ 134 µg/mL)
MBC (Pseudomonas aeruginosa-3): 51.2 µM (≈ 134 µg/mL)
MIC (Pseudomonas aeruginosa-3): 6.4 µM (≈ 16.7 µg/mL)
MBC (Citrobacter Diversus): 6.4 µM (≈ 16.7 µg/mL)
MIC (Citrobacter Diversus): 3.2 µM (≈ 8.35 µg/mL)
MIC (Staph auerus-MR-1): 51.2 µM (≈ 134 µg/mL)
MBC (Klebsiella pheumoniae-2): 25.6 µM (≈ 66.8 µg/mL)
MIC (Klebsiella pheumoniae-2): 6.4 µM (≈ 16.7 µg/mL)
MBC (Acinetobacter Cal Anit): 3.2 µM (≈ 8.35 µg/mL)
MIC (Acinetobacter Cal Anit): 3.2 µM (≈ 8.35 µg/mL)
MIC (Enterococcus-3): 51.2 µM (≈ 134 µg/mL)
MBC (Pseudomonas aeruginosa-2): 6.4 µM (≈ 16.7 µg/mL)
MIC (Pseudomonas aeruginosa-2): 3.2 µM (≈ 8.35 µg/mL)
MBC (Pseudomonas aeruginosa-1): 25.6 µM (≈ 66.8 µg/mL)
MIC (Pseudomonas aeruginosa-1): 6.4 µM (≈ 16.7 µg/mL)
MBC (Staph Coag neg): 3.2 µM (≈ 8.35 µg/mL)
MIC (Staph Coag neg): 1.6 µM (≈ 4.17 µg/mL)
MIC (Enterococcus-2): 51.2 µM (≈ 134 µg/mL)
MBC (Staph aureus-MR-2): 25.6 µM (≈ 66.8 µg/mL)
MIC (Staph aureus-MR-2): 12.8 µM (≈ 33.4 µg/mL)
MIC (Morganella morganil): 51.2 µM (≈ 134 µg/mL)
MBC (Citrobacter Freundii): 6.4 µM (≈ 16.7 µg/mL)
MIC (Citrobacter Freundii): 3.2 µM (≈ 8.35 µg/mL)
MBC (Enterococcus-1): 3.2 µM (≈ 8.35 µg/mL)
MIC (Enterococcus-1): 1.6 µM (≈ 4.17 µg/mL)
MBC (Klebsiella pheumoniae): 6.4 µM (≈ 16.7 µg/mL)
MIC (Klebsiella pheumoniae): 3.2 µM (≈ 8.35 µg/mL)
3H-Thymidine Uptake in WBC, % of Control ([1]; peptide 10 μM, PHA 0 mg): 149%
3H-Thymidine Uptake in WBC, % of Control ([1]; peptide 10 μM, PHA 0.5 mg): 290%
3H-Thymidine Uptake in WBC, % of Control ([1]; peptide 10 μM, PHA 5.0 mg): 120%
3H-Thymidine Uptake in WBC, % of Control ([1]; peptide 25 μM, PHA 0 mg): 46%
3H-Thymidine Uptake in WBC, % of Control ([1]; peptide 25 μM, PHA 0.5 mg): 393%
3H-Thymidine Uptake in WBC, % of Control ([1]; peptide 25 μM, PHA 5.0 mg): 108%
3H-Thymidine Uptake in WBC, % of Control ([1]; peptide 50 μM, PHA 0 mg): 19%
3H-Thymidine Uptake in WBC, % of Control ([1]; peptide 50 μM, PHA 0.5 mg): 4%
3H-Thymidine Uptake in WBC, % of Control ([1]; peptide 50 μM, PHA 5.0 mg): 1%
3H-Thymidine Uptake in WBC, % of Control ([1]; peptide 100 μM, PHA 0 mg): 26%
3H-Thymidine Uptake in WBC, % of Control ([1]; peptide 100 μM, PHA 0.5 mg): 5%
3H-Thymidine Uptake in WBC, % of Control ([1]; peptide 100 μM, PHA 5.0 mg): 0%

CC[C@H](C)[C@H](NC(=O)CNC(=O)[C@H](CC(N)=O)NC(=O)[C@H](CCCNC(=N)N)NC(=O)[C@@H](NC(=O)[C@H](CC(N)=O)NC(=O)[C@H](CCCNC(=N)N)NC(=O)CNC(=O)[C@@H](NC(=O)[C@H](CCCCN)NC(=O)[C@H](CCC(=O)O)NC(=O)[C@@H](NC(=O)[C@H](CCCCN)NC(=O)[C@H](CCCCN)NC(=O)[C@H](Cc1ccccc1)NC(=O)[C@@H](NC(=O)[C@H](CCCCN)NC(=O)[C@H](Cc1c[nH]c2ccccc12)NC(=O)[C@H](CCCCN)NC(=O)[C@@H]1CCCN1C(=O)[C@@H](N)CC(C)C)C(C)C)[C@@H](C)CC)C(C)C)[C@@H](C)CC)C(=O)N[C@H](C(=O)N[C@@H](CCCCN)C(=O)N[C@@H](C)C(=O)NCC(=O)N1CCC[C@H]1C(=O)N[C@@H](C)C(=O)N[C@H](C(=O)N[C@@H](C)C(=O)N[C@H](C(=O)N[C@@H](CC(C)C)C(=O)NCC(=O)N[C@@H](CCC(=O)O)C(=O)N[C@@H](C)C(=O)N[C@@H](CCCCN)C(=O)N[C@@H](C)C(=O)N[C@@H](CC(C)C)C(=O)NCC(N)=O)C(C)C)[C@@H](C)CC)C(C)C [LSB-37] (H-LPKWKVFKKIEKVGRNIRNGIVKAGPAIAVLGEAKALG-NH2)
viability at 1 h, 100 μM ([2]; normal 3T3 human fibroblasts, 3T3 Suspension (trypsinized)): 12%
viability at 1 h, 100 μM ([2]; 3T3 Monolayer): 94%
% Survival [3]: 100%
% Cell Viability (B-16 myeloma cells; B-16 Monolayer): 78%
% Cell Viability (B-16 myeloma cells; B-16 Suspension (trypsinized)): 22%
antibacterial result of treatment (Table I; MBC) (S. aureus; S. auerus (+)): 64 µM
MBC (S. aureus; Table III, S. aureus (+)): 64 µM (≈ 260 µg/mL)
MIC (Staph aureus): 32 µM (≈ 130 µg/mL)
MBC (Enterobacteria Cloacae): 8 µM (≈ 32.6 µg/mL)
MIC (Enterobacteria Cloacae): 2 µM (≈ 8.14 µg/mL)
MBC (Eschera Coli): 4 µM (≈ 16.3 µg/mL)
MIC (Eschera Coli): 1 µM (≈ 4.07 µg/mL)
MIC (Serratia Marcescens): 32 µM (≈ 130 µg/mL)
MBC (Pseudomonas aeruginosa-3): 16 µM (≈ 65.1 µg/mL)
MIC (Pseudomonas aeruginosa-3): 8 µM (≈ 32.6 µg/mL)
MBC (Citrobacter Diversus): 4 µM (≈ 16.3 µg/mL)
MIC (Citrobacter Diversus): 1 µM (≈ 4.07 µg/mL)
MBC (Klebsiella pheumoniae-2): 8 µM (≈ 32.6 µg/mL)
MIC (Klebsiella pheumoniae-2): 4 µM (≈ 16.3 µg/mL)
MBC (Acinetobacter Cal Anit): 1 µM (≈ 4.07 µg/mL)
MIC (Acinetobacter Cal Anit): 0.5 µM (≈ 2.04 µg/mL)
MIC (Enterococcus-3): 32 µM (≈ 130 µg/mL)
MBC (Pseudomonas aeruginosa-2): 16 µM (≈ 65.1 µg/mL)
MIC (Pseudomonas aeruginosa-2): 4 µM (≈ 16.3 µg/mL)
MBC (Pseudomonas aeruginosa-1): 16 µM (≈ 65.1 µg/mL)
MIC (Pseudomonas aeruginosa-1): 8 µM (≈ 32.6 µg/mL)
MIC (Staph Coag neg): 32 µM (≈ 130 µg/mL)
MIC (Enterococcus-2): 32 µM (≈ 130 µg/mL)
MIC (Morganella morganil): 32 µM (≈ 130 µg/mL)
MBC (Citrobacter Freundii): 4 µM (≈ 16.3 µg/mL)
MIC (Citrobacter Freundii): 1 µM (≈ 4.07 µg/mL)
MBC (Enterococcus-1): 32 µM (≈ 130 µg/mL)
MIC (Enterococcus-1): 8 µM (≈ 32.6 µg/mL)
MBC (Klebsiella pheumoniae): 8 µM (≈ 32.6 µg/mL)
MIC (Klebsiella pheumoniae): 2 µM (≈ 8.14 µg/mL)
antibacterial result of treatment (Table I; MBC) (E. coli): 16 µM
MBC (E. coli; Table III): 2.0 µM (≈ 8.14 µg/mL)
viability at 15 minutes, 100 μM ([4]; Cold-treated (4° C.)): 70%
viability at 15 minutes, 100 μM ([4]; Warm-treated (37° C.)): 96%
viability at 15 minutes, 100 μM ([4]; with colchicine 0.1 μg/ml (cytoskeletal inhibitor), Colchicine-treated (0.1 μg/ml)): 40%
viability at 15 minutes, 100 μM ([4]; with cytochalasin D 5 μg/ml (cytoskeletal inhibitor), Cytochalasin D-treated (5 μg/ml)): 32%
antibacterial result of treatment (Table I; MBC) (P. aeruginosa; P. aeruginosa (−)): 8 µM
MBC (P. aeruginosa; Table III, P. aeuriginosa (−)): 3.6 µM (≈ 14.7 µg/mL)
